Patent US7235679B2, “Crystals of a vitamin D derivative and a method for the preparation thereof” (Chugai Seiyaku Kabushiki Kaisha, priority 1996, dated 2007)

Experiments:
Assay type in all cases: physicochemical
[1] = Stability test of ED-71: HPLC quantitative assay (survivability)
Procedure: (§1) Amorphous and crystalline ED-71 compounds were tested for stability at 10, 25 and […]. To estimate the stability, HPLC quantitative assay and absorbance and purity measurements were utilized. The purity was expressed as peak area ratio in percentage in HPLC (% P.A.R.). The test was carried out by using the following procedures:
(§2) About 2 mg portions of each of the amorphous and crystalline samples are precisely weighed into transparent 10 ml test tubes each having screw cap, individually.
(§3) The test tubes are purged with argon using a vacuum desiccator and a glove box. This purging procedure is not applied to the test tubes indicated as “1 M (air)” in the tables below.
(§4) The test tubes in groups are fixed in thermostatic baths which are respectively controlled at the above temperatures and allowed to stand in the dark. After one (1 W) or two (2 W) weeks or one month (1 M), the test tubes are removed from the baths and subjected to the following assay and measurements:
5 ml of absolute ethanol is precisely added to the test tube to form a sample solution. 1 ml of the sample solution and 1 ml of an internal standard solution are both precisely added to another test tube and the resulting mixture is diluted with methylene chloride to give a whole volume of 20 ml. This diluted solution is designated solution 1. The internal standard solution is formed by dissolving 2-aminopyrimidine in methanol to a concentration of 0.6 mg/ml.
Next, both of 1 ml of another standard solution for quantitative assay which is formed by dissolving crystalline ED-71 in absolute ethanol to a concentration of 0.4 mg/ml and 1 ml of the internal standard solution are precisely added to another test tube and the resulting mixture is diluted with methylene chloride to give a whole volume of 20 ml. This diluted solution is designated solution 2.
HPLC is carried out using 20 μl of each of solutions 1 and 2. For each solution, an area ratio of the peak of ED-71 to the peak of the internal standard substance is determined from the HPLC data. The ED-71 content in the sample is determined from the ratio of the area ratio for solution 1 to that for solution 2.
Survivability (%) is determined by dividing the ED-71 content thus obtained by ED-71 content in the same sample but prior to the above treatment. • HPLC conditions used: • Column: YMC A-004SIL (4.6×300 mm) • Mobile phase: methylene chloride/methanol mixture (95/5) • Flow rate: 1 ml/min • Detection: at UV 265 nm. (3) Absorbance Measurement

[2] = Stability test of ED-71: purity measurement using normal phase HPLC; settings: 265 nm
Procedure: as §1, §2, §3, §4
1 ml of the sample solution as prepared in “HPLC quantitative assay” above is dried in vacuo to remove the solvent (absolute ethanol). The residue is dissolved in 1 ml of methylene chloride. HPLC assay is carried out using 25 μl of this solution. • HPLC conditions used: • Column: YMC A-004SIL (4.6×300 mm) • Mobile phase: methylene chloride/methanol mixture (96/4) • Flow rate: 1.8 ml/min • Detection: at UV 265 nm.

[3] = Stability test of ED-71: purity measurement using reverse phase HPLC; settings: 220 nm, 10° C.
Procedure: as §1, §2, §3, §4
HPLC is carried out using 25 μl of the sample solution as prepared in “HPLC quantitative assay” above. • HPLC conditions used: • Column: Inertsil ODS-2 (5×250 mm) • Mobile phase: acetonitrile/water mixture (55/45) • Flow rate: 1 ml/min • Detection: at UV 265 and 220 nm.

Purity Measurement Using Normal Phase HPLC, ED-71 peak ([2]; 10° C., 1 M (air), dark): 95.26 % P.A.R | Purity Measurement Using Normal Phase HPLC, Other peaks ([2]; 10° C., 1 M (air), dark): 2.42 % P.A.R | Purity Measurement Using Normal Phase HPLC, Pre Form peak ([2]; 10° C., 1 M (air), dark): 2.31 % P.A.R | Purity Measurement Using Normal Phase HPLC, ED-71 peak ([2]; 10° C., 1 M, argon, dark): 94.58 % P.A.R | Purity Measurement Using Normal Phase HPLC, Other peaks ([2]; 10° C., 1 M, argon, dark): 3.09 % P.A.R | Purity Measurement Using Normal Phase HPLC, Pre Form peak ([2]; 10° C., 1 M, argon, dark): 2.33 % P.A.R | Purity Measurement Using Normal Phase HPLC, ED-71 peak ([2]; 10° C., 2 W, argon, dark): 95.46 % P.A.R | Purity Measurement Using Normal Phase HPLC, Other peaks ([2]; 10° C., 2 W, argon, dark): 2.28 % P.A.R | Purity Measurement Using Normal Phase HPLC, Pre Form peak ([2]; 10° C., 2 W, argon, dark): 2.27 % P.A.R | Purity Measurement Using Normal Phase HPLC, ED-71 peak ([2]; 10° C., time 0): 96.06 % P.A.R | Purity Measurement Using Normal Phase HPLC, Other peaks ([2]; 10° C., time 0): 2.27 % P.A.R | Purity Measurement Using Normal Phase HPLC, Pre Form peak ([2]; 10° C., time 0): 1.67 % P.A.R | Purity Measurement Using Normal Phase HPLC, ED-71 peak ([2]; 25° C., 1 W, argon, dark): 95.97 % P.A.R | Purity Measurement Using Normal Phase HPLC, Other peaks ([2]; 25° C., 1 W, argon, dark): 2.14 % P.A.R | Purity Measurement Using Normal Phase HPLC, Pre Form peak ([2]; 25° C., 1 W, argon, dark): 1.88 % P.A.R | Purity Measurement Using Normal Phase HPLC, ED-71 peak ([2]; 25° C., 2 W, argon, dark): 94.74 % P.A.R | Purity Measurement Using Normal Phase HPLC, Other peaks ([2]; 25° C., 2 W, argon, dark): 3.01 % P.A.R | Purity Measurement Using Normal Phase HPLC, Pre Form peak ([2]; 25° C., 2 W, argon, dark): 2.25 % P.A.R | Purity Measurement Using Normal Phase HPLC, ED-71 peak ([2]; 25° C., time 0): 96.06 % P.A.R | Purity Measurement Using Normal Phase HPLC, Other peaks ([2]; 25° C., time 0): 2.27 % P.A.R | Purity Measurement Using Normal Phase HPLC, Pre Form peak ([2]; 25° C., time 0): 1.67 % P.A.R | Purity Measurement Using Normal Phase HPLC, ED-71 peak ([2]; 40° C., 1 W, argon, dark): 94.47 % P.A.R | Purity Measurement Using Normal Phase HPLC, Other peaks ([2]; 40° C., 1 W, argon, dark): 3.00 % P.A.R | Purity Measurement Using Normal Phase HPLC, Pre Form peak ([2]; 40° C., 1 W, argon, dark): 2.53 % P.A.R | Purity Measurement Using Normal Phase HPLC, ED-71 peak ([2]; 40° C., 2 W, argon, dark): 92.12 % P.A.R | Purity Measurement Using Normal Phase HPLC, Other peaks ([2]; 40° C., 2 W, argon, dark): 4.89 % P.A.R | Purity Measurement Using Normal Phase HPLC, Pre Form peak ([2]; 40° C., 2 W, argon, dark): 2.99 % P.A.R | Purity Measurement Using Normal Phase HPLC, ED-71 peak ([2]; 40° C., time 0): 96.06 % P.A.R | Purity Measurement Using Normal Phase HPLC, Other peaks ([2]; 40° C., time 0): 2.27 % P.A.R | Purity Measurement Using Normal Phase HPLC, Pre Form peak ([2]; 40° C., time 0): 1.67 % P.A.R | 220 nm (%), ED-71 peak ([3]; 1 M (air), dark): 92.07% | 220 nm (%), Other peaks ([3]; 1 M (air), dark): 5.88% | 220 nm (%), Pre Form peak ([3]; 1 M (air), dark): 2.04% | 220 nm (%), ED-71 peak ([3]; 1 M, argon, dark): 92.85% | 220 nm (%), Other peaks ([3]; 1 M, argon, dark): 5.13% | 220 nm (%), Pre Form peak ([3]; 1 M, argon, dark): 2.02% | 220 nm (%), ED-71 peak ([3]; 2 W, argon, dark): 92.85% | 220 nm (%), Other peaks ([3]; 2 W, argon, dark): 5.13% | 220 nm (%), Pre Form peak ([3]; 2 W, argon, dark): 2.02% | 220 nm (%), ED-71 peak ([3]; time 0): 93.95%
SMILES: C=C1/C(=C\C=C2/CCC[C@@]3(C)C2CC[C@@H]3[C@H](C)CCCC(C)(C)O)C[C@@H](O)[C@@H](OCCCO)[C@@H]1O (stereo partly drawn) [Amor., 1α,25-dihydroxy-2β-(3-hydroxypropoxy)vitamin D3]
HPLC Quantitative Assay (% Survivability) ([1]; 10° C., 1 M (air), dark): 97.4% | HPLC Quantitative Assay (% Survivability) ([1]; 10° C., 1 M, argon, dark): 94.8% | HPLC Quantitative Assay (% Survivability) ([1]; 10° C., 2 W, argon, dark): 98.5% | HPLC Quantitative Assay (% Survivability) ([1]; 10° C., time 0): 100% | HPLC Quantitative Assay (% Survivability) ([1]; 25° C., 1 W, argon, dark): 99.5% | HPLC Quantitative Assay (% Survivability) ([1]; 25° C., 2 W, argon, dark): 94.7% | HPLC Quantitative Assay (% Survivability) ([1]; 25° C., time 0): 100% | HPLC Quantitative Assay (% Survivability) ([1]; 40° C., 1 W, argon, dark): 99.4% | HPLC Quantitative Assay (% Survivability) ([1]; 40° C., 2 W, argon, dark): 88.8% | HPLC Quantitative Assay (% Survivability) ([1]; 40° C., time 0): 100%
